Data set [1] is described as follows: Measurement of logP by HPLC on reversed phase columns (EEC directive 79/831 Annex V.A8). The format is physicochemical. Conditions: pH 2.7, 0.1% formic acid in water / acetonitrile gradient.
A further data set relates to Phytophthora infestans. The data set is classed as in vivo. To be noted: tomato young plants, preventive spray, 100 ppm of active ingredient, evaluated 7 days after inoculation; 0% = untreated control, 100% = no disease.

Consider `CCC(C)=NOC(=O)Nc1cccc(CO/N=C(/c2ccccc2)c2nnnn2C)n1` [Example 1, [(butan-2-ylideneamino)oxy]({6-[({[(Z)-(1-methyl-1H-tetrazol-5-yl)(phenyl)methylene]amino}oxy)methyl]pyridin-2-yl}amino)methanone], for which, in data set [1] (reversed phase HPLC column, read-out: LogP (HCOOH)), the chromatographic logP was found to be 3.27. The Eff. % in the data set on Phytophthora infestans came out at 95%. As to `CCCCC(C)=NOC(=O)Nc1cccc(CON=C(c2ccccc2)c2nnnn2C)n1` [Example 2], the “LogP (HCOOH)” value in data set [1] came to 3.96. For the same compound, in the data set with Phytophthora infestans, the Eff. % came to 92%. Turning to `CC(=NOC(=O)Nc1cccc(CON=C(c2ccccc2)c2nnnn2C)n1)c1ccccc1` [Example 3], the Eff. % in the data set with Phytophthora infestans is reported as 94%. `CCC(=NOC(=O)Nc1cccc(CON=C(c2ccccc2)c2nnnn2C)n1)c1ccccc1` [Example 4]: the Eff. % in the data set on Phytophthora infestans turned out to be 97%. As to `CC(=NOC(=O)Nc1cccc(CON=C(c2ccccc2)c2nnnn2C)n1)C(C)(C)C` [Example 7], in the data set with Phytophthora infestans, the Eff. % is listed as 95%.

Take `Cn1nnnc1C(=NOCc1cccc(NC(=O)ON=C(CCl)C(C)(C)C)n1)c1ccccc1` [Example 8]: in the data set with Phytophthora infestans, the Eff. % turned out to be 93%. Take `CCCCCCC(C)=NOC(=O)Nc1cccc(CON=C(c2ccccc2)c2nnnn2C)n1` [Example 11]: the “LogP (HCOOH)” value in data set [1] was 4.79. Moreover, in the data set with Phytophthora infestans, the Eff. % is 90%.

On to `CC(=NOC(=O)Nc1cccc(CON=C(c2ccccc2)c2nnnn2C)n1)C(C)C` [Example 13], for which the Eff. % with Phytophthora infestans is 95%. In the data set on Phytophthora infestans, `CC(C)=NOC(=O)Nc1cccc(CON=C(c2ccccc2)c2nnnn2C)n1` [Example 14] came in with an Eff. % of 92%.

As for `CC(=NOC(=O)Nc1cccc(CON=C(c2ccccc2)c2nnnn2C)n1)C1CC1` [Example 18], the Eff. % with Phytophthora infestans is listed as 93%.

As to `CCCCCC(C)=NOC(=O)Nc1cccc(CON=C(c2ccccc2)c2nnnn2C)n1` [Example 20], the “LogP (HCOOH)” value in data set [1] is given as 4.39. In the data set with Phytophthora infestans, this compound registered an Eff. % of 95%.

(Values after patent US20130289077A1 (priority 2010, published 2013).)
